According to US11466044B2 (WAYNE STATE UNIVERSITY, priority 2017, dated 2022):
Converted amounts (≈) assume the structure as drawn. Read-outs that look alike come from different tables or passages of the source.

Columns and labels:
P aeruginosa = assay: MIC by broth microdilution, P aeruginosa isolates; format: cell-based, Pseudomonas aeruginosa
[1] = tested on: E coli carrying specific resistance determinants; assay: MIC by broth microdilution, E coli carrying specific resistance determinants; format: cell-based; conditions: for MIC50 / MIC: Escherichia coli
[2] = tested on: Acinetobacter baumannii pittii AG225; assay: MIC by broth microdilution, Acinetobacter baumannii; format: cell-based; conditions: strain AG225 Acinetobacter baumannii pittii
[3] = tested on: Klebsiella pneumonia AG215; assay: MIC by broth microdilution, Klebsiella pneumonia; format: cell-based; conditions: Klebsiella pneumoniae; strain AG215 Klebsiella pneumonia; read-out: MIC AG215 K. pneumon
M. abscessus = assay: MIC by broth microdilution, M. abscessus; format: cell-based; conditions: Mycobacteroides abscessus
[4] = tested on: wild type bacterial ribosomes; assay: in-vitro translation assay, bacterial ribosomes; format: biochemical
Text: The antiribosomal activity of these compounds was investigated with cell-free translation assays using both wild type bacterial ribosomes and hybrid ribosomes carrying eukaryotic decoding A sites enabling the prediction of selectivity.

## NC[C@@H]1O[C@H](O[C@H]2[C@@H](O)[C@H](O[C@@H]3[C@@H](O)[C@H](N)C[C@H](N)[C@H]3O[C@H]3O[C@H](CO)[C@@H](O)[C@H](O)[C@H]3N)O[C@@H]2CO)[C@H](N)[C@@H](O)[C@@H]1O [paromomycin, reference compound]
P aeruginosa; strain AG33, Table 1 (Example 2)
  MIC50 P aeruginosa AG33: >128 µg/mL
P aeruginosa; strain AG86, Table 1 (Example 2)
  MIC50 P aeruginosa AG86: >128 µg/mL
P aeruginosa; strain AG220 Pseudomonas aeruginosa ATCC27853, read-out: MIC AG220 P. aerugin
  MIC: > 64 µg/mL
[1]; APH(3′)-II, Table 3 (Example 2)
  MIC APH(3′)-II: >64 µg/mL
[1]; read-out: MIC50 E coli AG07 AAC(3), AG07 AAC(3), Table 2A (Example 2)
  MIC50: 4 to 8 µg/mL (≈ 6.5 to 13 µM)
[1]; read-out: MIC50 E coli AG09 AAC(6′), AG09 AAC(6′), Table 2A (Example 2)
  MIC50: 8 to 16 µg/mL (≈ 13 to 26 µM)
[1]; read-out: MIC50 E coli AG036 ANT(4′,4″), AG036 ANT(4′,4″), Table 2A (Example 2)
  MIC50: 256 µg/mL (≈ 416 µM)
[1]; read-out: MIC50 E coli AG036 ANT(4′,4″), AG036 ANT(4′,4″), Table 2B (Example 2)
  MIC50: 32 to 64 µg/mL (≈ 52 to 104 µM)
[1]; read-out: MIC50 E coli AG037 APH(3′)-III, AG037 APH(3′)-III, Table 2B (Example 2)
  MIC50: > 128 µg/mL
[1]; read-out: MIC50 E coli AG037 APH(3′,5″), AG037 APH(3′,5″), Table 2A (Example 2)
  MIC50: > 256 µg/mL
[1]; read-out: MIC50 E coli AG103 ArmA, AG103 ArmA, Table 2A (Example 2)
  MIC50: 4 µg/mL (≈ 6.5 µM)
[1]; read-out: MIC50 E coli AG103 armA, AG103 armA, Table 2B (Example 2)
  MIC50: 2 µg/mL (≈ 3.25 µM)
[1]; read-out: MIC50 E coli AG105 AAC(2′), AG105 AAC(2′), Table 2A (Example 2)
  MIC50: 2 to 4 µg/mL (≈ 3.25 to 6.5 µM)
[1]; read-out: MIC50 E coli pH414 AAC(6′)-I, pH414 AAC(6′)-I, Table 2B (Example 2)
  MIC50: 2 µg/mL (≈ 3.25 µM)
[1]; read-out: MIC50 E coli pH415 AAC(6′)-II, pH415 AAC(6′)-II, Table 2B (Example 2)
  MIC50: 2 to 4 µg/mL (≈ 3.25 to 6.5 µM)
[1]; read-out: MIC50 E coli pH421 APH(3′)-I, pH421 APH(3′)-I, Table 2B (Example 2)
  MIC50: > 128 µg/mL
[1]; read-out: MIC50 E coli pH422 APH(3′)-II, pH422 APH(3′)-II, Table 2B (Example 2)
  MIC50: > 128 µg/mL
[1]; read-out: MIC50 E coli pH423 APH(3)-VI, pH423 APH(3)-VI, Table 2B (Example 2)
  MIC50: > 128 µg/mL
[1]; read-out: MIC50 E coli pH432 ANT(4′), pH432 ANT(4′), Table 2B (Example 2)
  MIC50: 1 to 2 µg/mL (≈ 1.62 to 3.25 µM)
[1]; read-out: MIC AAC(6′)
  MIC: 2 to 4 µg/mL (≈ 3.25 to 6.5 µM)
[1]; read-out: MIC AG003 E. coli AAC(3)-II
  MIC: 2 to 4 µg/mL (≈ 3.25 to 6.5 µM)
[1]; read-out: MIC AG036 ANT(4′,4′′)
  MIC: 32 to 64 µg/mL (≈ 52 to 104 µM)
[1]; read-out: MIC AG037 APH(3′)-III
  MIC: > 128 µg/mL
[1]; read-out: MIC AG037 E. coli APH(3′)-III
  MIC: > 128 µg/mL
[1]; read-out: MIC AG103 armA
  MIC: 2 µg/mL (≈ 3.25 µM)
[1]; read-out: MIC AG163 E. coli APH(3′)-I
  MIC: > 128 µg/mL
[1]; read-out: MIC AG166 E. coli APH(3′)-II
  MIC: > 128 µg/mL
[1]; read-out: MIC ANT(4′)
  MIC: 32 to 64 µg/mL (≈ 52 to 104 µM)
[1]; read-out: MIC APH(3)-VI
  MIC: > 64 µg/mL
[1]; read-out: MIC APH(3′)-I
  MIC: > 64 µg/mL
[1]; read-out: MIC APH(3′)-II
  MIC: > 64 µg/mL
[1]; read-out: MIC APH(3′)-III
  MIC: > 64 µg/mL
[1]; read-out: MIC APH(3′)-VI
  MIC: > 64 µg/mL
[1]; read-out: MIC E coli AG007 ANT(3″) AAC(3)-I
  MIC: 4 µg/mL (≈ 6.5 µM)
[1]; read-out: MIC E coli AG103 ArmA
  MIC: 1 to 2 µg/mL (≈ 1.62 to 3.25 µM)
[1]; read-out: MIC E coli AG106 AAC(2′)
  MIC: > 64 µg/mL
[1]; read-out: MIC E coli AG163/164 APH(3′)-Ia
  MIC: > 128 µg/mL
[1]; read-out: MIC E coli AG166 APH(3′)-IIa
  MIC: > 128 µg/mL
[1]; read-out: MIC E coli AG173 AAC(3)-IV
  MIC: 2 to 4 µg/mL (≈ 3.25 to 6.5 µM)
[1]; read-out: MIC E coli AG182 AAC(3)-IV APH(3′)-Ia
  MIC: > 128 µg/mL
[1]; read-out: MIC E. coli AAC(2′) AG106
  MIC: > 64 µg/mL
[1]; read-out: MIC E. coli AAC(2′) pH434
  MIC: > 64 µg/mL
[1]; read-out: MIC E. coli AG106 AAC(2′)-Ia
  MIC: > 64 µg/mL
[1]; read-out: MIC E. coli pGB2armA armA
  MIC: 2 µg/mL (≈ 3.25 µM)
[1]; read-out: MIC E. coli pH434 AAC(2′)-Ib
  MIC: > 64 µg/mL
[1]; read-out: MIC pH414 AAC(6′)-I
  MIC: 2 µg/mL (≈ 3.25 µM)
[1]; read-out: MIC pH415 AAC(6′)-II
  MIC: 2 to 4 µg/mL (≈ 3.25 to 6.5 µM)
[1]; read-out: MIC pH421 APH(3)-I
  MIC: > 128 µg/mL
[1]; read-out: MIC pH421 E. coli APH(3′)-I
  MIC: > 128 µg/mL
[1]; read-out: MIC pH422 APH(3′)-II
  MIC: > 128 µg/mL
[1]; read-out: MIC pH422 E. coli APH(3′)-II
  MIC: > 128 µg/mL
[1]; read-out: MIC pH423 APH(3′)-VI
  MIC: > 128 µg/mL
[1]; read-out: MIC pH423 E. coli APH(3′)-VI
  MIC: > 128 µg/mL
[1]; read-out: MIC pH432 ANT(4′)
  MIC: 1 to 2 µg/mL (≈ 1.62 to 3.25 µM)
[2]
  MIC: 2 µg/mL (≈ 3.25 µM)
[3]
  MIC: 1 µg/mL (≈ 1.62 µM)
M. abscessus; ATCC19977, read-out: MIC M. abscessus ATCC 19977 WT
  MIC: 8 µg/mL (≈ 13 µM)
M. abscessus; read-out: MIC M. abscessus ATCC
  MIC: 8 µg/mL (≈ 13 µM)
M. abscessus; read-out: MIC M. abscessus Clin. Isol.
  MIC: 32 µg/mL (≈ 52 µM)
M. abscessus; read-out: MIC M. abscessus clinical isolate
  MIC: 32 µg/mL (≈ 52 µM)
M. abscessus; read-out: MIC M. abscessus engineered Δeis2
  MIC: 4 µg/mL (≈ 6.5 µM)
[4]; Mycobacterium smegmatis ribosomes, read-out: IC50 Bacterial
  IC50: 40 nM
[4]; bacterial ribosome, Table 3 (Example 1), read-out: IC50 Bac
  IC50: 40 nM
[4]; bacterial ribosome, Table 3 (Example 2), read-out: IC50 Bac
  IC50: 40 nM
[4]; bacterial ribosome, Table 4 (Example 3), read-out: IC50 Bac
  IC50: 40 nM
